Experimental data as given in patent publication US7858665B2, “Drugs for chronic pain” (Nicox S.A., priority 2002, dated 2010).

Assays:
[1] = test system: chronic constriction injury of the rat sciatic nerve; assay: Neuropathic pain model: chronic constriction injury of the rat sciatic nerve, vocalization threshold to paw pressure; type: in vivo; conditions: for Vocalization threshold to pressure in the injured paw (VTPP): 175 μmoles/kg, ip, day 14 post lesion
Text: We have tested the antinoceptive effects of compound of formula (XVA, Example 1), hereinafter NO-gabapentin, in the model of neuropathic pain constituted by the chronic constriction injury of the rat sciatic nerve. The parent compound gabapentin has been used as reference drug.
The unilateral peripheal mononeuropathy was obtained according to the method described by Bennet G J and Xie Y K, Pain (33) 1988: 87-107. Sample populations ranging from 8 to 12 rats (SD males weighting 250-300 g) for condition were used. The antinoceptive effect of the drugs was determined by measuring the vocalization threshold (VTPP) elicited by paw pressure both at the injured and at the controlateral side. The test was performed at day 14 post lesion. All compounds were tested for acute antinoceptive effects. Acute effects were determined within 60 min following a single intraperitoneal (i.p.) injection of the drugs prior to the test.
Each group of the rats received gabapentin at the dose of 30 mg/kg (175 μmoles/kg), or an equimolar dose of NO-gabapentin (175 μmoles/kg), or the same volume of vehicle (Control group). The drugs were dissolved (20 mg/mL) in vehicle containing saline: DMSO: Castor oil (68:8:24).

male Swiss mice [2] = assay: Paw licking test (formalin injected in paw); type: in vivo; conditions: for paw licking Phase I: phase I 0-15 minutes after formalin; for paw licking Phase I / paw licking Phase II: 3 mg/kg oral (gabapentin 17.5 μm/kg, NO-gabapentin 8.5 μm/kg), 1 h before formalin; for paw licking Phase II: phase II 15-30 minutes after formalin
Experimental: Three groups of male Swiss mice (20-25 g, Charles River), 10 animals each, received by oral administration as in Example F1 gabapentin in an amount of 3 mg/kg (17.5 μm/kg) or the compound of formula (XVA, Example 1), hereinafter NO-gabapentin, in an amount of 3 mg/kg (8.5 μm/kg) dissolved in saline solution. The control group received an equal volume of saline solution. One hour after administration of the compound solutions, the mice were injected with formalin in the paw (10 μl).
The formalin injection induced a biphasic reaction. In first phase (phase I, 0-15 minutes) an acute inflammation was observed; in the second phase (phase II, 15-30 minutes) a release of chemical mediators occurred as in neurophatic pain. Within 30 minutes subsequent to formalin injection, in each animal the time in seconds in which the animal licked its paw was recorded. Analysis was carried out in blind.
The results reported in Table 2 are expressed as the entire time in seconds in which paw licking in animals during the first and second phase as defined above was observed.

male Swiss mice [3] = assay: Writhing test (acetic acid-induced abdominal contractions); type: in vivo; conditions: for Contractions number: 1 h before i.p. acetic acid, total contractions within 15 minutes
Experimental: Nine groups of male Swiss mice (20-25 g, Charles River), 10 animals each, received by oral administration through gastric tube (gavage) gabapentin in an amount of from 1 to 10 mg/kg or the compound of the invention (XVA, Example 1), hereinafter NO-gabapentin, in an amount of from 1 to 10 mg/kg dissolved in saline solution. One hour after administration of the compound solutions, through intraperitoneal injection the mice received a glacial acetic acid solution (0.5 ml, 0.6%). Within 15 minutes subsequent to the administration of acetic acid, in every animal the number of abdominal contractions was counted. Analysis was carried out in blind.
The results reported in Table 1 are given as the number of total contractions within the observation time (15 minutes).

washed human platelets = assay: NO generation by NO-donors in platelets (chemiluminescence); type: cell-based; conditions: incubation of 100 μM, 5 minutes
Experimental: Washed human platelets have been used, obtained as described by Radomski et al., (Br. J. Pharmacol. 92, 639-1987). Amounts of 0.4 ml were incubated 5 minutes with scalar NO-donor concentrations (1-100 μg/ml). […] As to the chemiluminescence assay, also in this case on the basis of a calibration curve plotted with nitrite scalar concentrations, it has been possible to quantitatively define the concentration of the generated NO. For example, after incubation of 100 μM nicorandil, an amount of 35 μM of NO was generated.

[4] = test system: human umbilical vein cells; assay: NO generation by NO-donors in endothelial cells (chemiluminescence); type: cell-based; conditions: incubation of 100 μl nicorandil, 5 minutes
Experimental: Plated human umbilical vein cells with density of 10^3 cells/well, have been incubated 5 minutes with NO-donor scalar concentrations (1-100 μg/ml). Incubation medium (physiological solvent, i.e. Tyrode) has been then analysed to ascertain the ability to generate NO by means of: 1) nitric oxide detection by chemiluminescence, As far as chemiluminescence analysis is concerned, a 100 μl aliquot has been injected into reaction chamber of an chemiluminescence analyzer containing glacial acetic acid and potassium iodide. […] As usual in devices measuring chemiluminescence, the produced luminescence is directly proportional to the generated NO levels and can be measured by means of the suitable photomultiplier unity of an chemiluminescence analyzer. The photomultiplier turns incident light into electric voltage, that then is quantitatively registered. Referring to a calibration curve, obtained with scalar nitrite concentrations, it has been possible to quantitatively evaluate the concentration of the generated NO. For example, from incubation of […], an amount of about 10 μM NO was generated.

Row | Structure (SMILES) | Vocalization threshold to pressure in the injured paw (VTPP) ([1]; 0 min post-dosing) [grams] | Vocalization threshold to pressure in the injured paw (VTPP) ([1]; 5 min post-dosing) [grams] | Vocalization threshold to pressure in the injured paw (VTPP) ([1]; 10 min post-dosing) [grams] | Vocalization threshold to pressure in the injured paw (VTPP) ([1]; 20 min post-dosing) [grams] | Vocalization threshold to pressure in the injured paw (VTPP) ([1]; 40 min post-dosing) [grams] | Vocalization threshold to pressure in the injured paw (VTPP) ([1]; 60 min post-dosing) [grams] | antinoceptive efficacy compared with gabapentin ([1]; equimolar dose 175 μmoles/kg i.p.) | paw licking Phase I (male Swiss mice [2]) [s] | activity in inhibiting paw licking in first phase, compared with gabapentin (male Swiss mice [2]; phase I, molar dose corresponding to 50% of gabapentin) | paw licking Phase II (male Swiss mice [2]) [s] | effectiveness in second phase, compared with gabapentin (male Swiss mice [2]; phase II, molar dose corresponding to 50% of gabapentin) | activity in inhibiting abdominal contraction amount, compared with gabapentin (male Swiss mice [3]; 1 to 10 mg/kg oral) | Contractions number (male Swiss mice [3]; dose 1 mg/kg oral) | Contractions number (male Swiss mice [3]; dose 3 mg/kg oral) | Contractions number (male Swiss mice [3]; dose 10 mg/kg oral) | amount of NO generated (washed human platelets) [µM] | amount of NO generated [4]
1 | O=C(O)CC1(CNC(=O)c2ccc(CO[N+](=O)[O-])cc2)CCCCC1 [NO-gabapentin, 1-[4-(nitrooxymethyl)benzoylaminomethyl]-cyclohexaneacetic acid] | 153 ± 10 | 187 ± 10 | 307 ± 14 | 325 ± 08 | 390 ± 11 | 382 ± 09 | more efficacious than gabapentin | 50 | more active than the starting drug | 60 | less effective | more active than precursor drug | 24 | 15 | 15 | – | –
2 | O=C(NCCO[N+](=O)[O-])c1cccnc1 [nicorandil] | – | – | – | – | – | – | – | – | – | – | – | – | – | – | – | 35 | about 10 μM
3 | NCC1(CC(=O)O)CCCCC1 [Gabapentin, 1-(aminomethyl)cyclohexaneacetic acid, reference compound] | 160 ± 10 | 165 ± 23 | 191 ± 29 | 250 ± 24 | 266 ± 26 | 250 ± 38 | – | 85 | – | 30 | – | – | 32 | 22 | 27 | – | –
